Source: patent US20260042731A1, “(2,4-DICHLOROPHENOXY)ACETIC ACID ANALOGS” (CORTEVA AGRISCIENCE LLC, priority 2022, published 2026)
Like-named read-outs stand apart in the source and are kept apart here.

Columns and labels:
[1] = tested on: Abutilon theophrasti (ABUTH), velvetleaf; test: Postemergence herbicide evaluation, growth of Abutilon theophrasti (ABUTH); assay type: in vivo; conditions: Abutilon theophrasti, post-emergence, percent reduction in plant size relative to untreated control, read-out: AVE. ABUTH; for pest or weed control at 280 g/ha: 280 g ae/ha; for pest or weed control at 560 g/ha: 560 g ae/ha
[2] = tested on: Ambrosia artemisiifolia (AMBEL), common ragweed; test: Postemergence herbicide evaluation, growth of Ambrosia artemisiifolia (AMBEL); assay type: in vivo; conditions: Ambrosia artemisiifolia, post-emergence, percent reduction in plant size relative to untreated control, read-out: AVE. AMBEL; for pest or weed control at 280 g/ha: 280 g ae/ha; for pest or weed control at 560 g/ha: 560 g ae/ha
[3] = tested on: Amaranthus rudis (AMATA), tall water hemp; test: Postemergence herbicide evaluation, growth of Amaranthus rudis (AMATA); assay type: in vivo; conditions: Amaranthus tuberculatus, post-emergence, percent reduction in plant size relative to untreated control, read-out: Ave. AMATA; for pest or weed control at 280 g/ha: 280 g ae/ha; for pest or weed control at 560 g/ha: 560 g ae/ha
[4] = tested on: glyphosate resistant Conyza canadensis (L.) (ERICA), horseweed; test: Postemergence herbicide evaluation, growth of Conyza canadensis (ERICA); assay type: in vivo; conditions: Erigeron canadensis, post-emergence, percent reduction in plant size relative to untreated control, read-out: Ave. ERICA; for pest or weed control at 280 g/ha: 280 g ae/ha; for pest or weed control at 560 g/ha: 560 g ae/ha
[5] = Volatility of compounds measured by thermogravimetric analysis (TGA); assay type: physicochemical
[6] = tested on: Chenopodium album (CHEAL), common lambsquarters; test: Postemergence herbicide evaluation, growth of Chenopodium album (CHEAL); assay type: in vivo; conditions: Chenopodium album, post-emergence, percent reduction in plant size relative to untreated control, read-out: Ave. CHEAL; for pest or weed control at 280 g/ha: 280 g ae/ha; for pest or weed control at 560 g/ha: 560 g ae/ha
[7] = tested on: weeds (ABUTH, AMATA, AMBEL, CHEAL, ERICA); test: Postemergence herbicide evaluation, overall average % weed control across ABUTH, AMATA, AMBEL, CHEAL, ERICA; assay type: in vivo; conditions: post-emergence, average over the five weeds, read-out: Overall Ave % Weed Control; for pest or weed control at 280 g/ha: 280 g ae/ha; for pest or weed control at 560 g/ha: 560 g ae/ha

| Compound | pest or weed control at 280 g/ha ([1]; 168 h, 7 DAA) | pest or weed control at 560 g/ha ([1]; 168 h, 7 DAA) | pest or weed control at 280 g/ha ([1]; 336 h, 14 DAA) | pest or weed control at 560 g/ha ([1]; 336 h, 14 DAA) | pest or weed control at 280 g/ha ([1]; 504 h, 21 DAA) | pest or weed control at 560 g/ha ([1]; 504 h, 21 DAA) | pest or weed control at 280 g/ha ([2]; 168 h, 7 DAA) | pest or weed control at 560 g/ha ([2]; 168 h, 7 DAA) | pest or weed control at 280 g/ha ([2]; 336 h, 14 DAA) | pest or weed control at 560 g/ha ([2]; 336 h, 14 DAA) | pest or weed control at 280 g/ha ([2]; 504 h, 21 DAA) | pest or weed control at 560 g/ha ([2]; 504 h, 21 DAA) | pest or weed control at 280 g/ha ([3]; 168 h, 7 DAA) | pest or weed control at 560 g/ha ([3]; 168 h, 7 DAA) | pest or weed control at 280 g/ha ([3]; 336 h, 14 DAA) | pest or weed control at 560 g/ha ([3]; 336 h, 14 DAA) | pest or weed control at 280 g/ha ([3]; 504 h, 21 DAA) | pest or weed control at 560 g/ha ([3]; 504 h, 21 DAA) | pest or weed control at 280 g/ha ([4]; 168 h, 7 DAA) | pest or weed control at 560 g/ha ([4]; 168 h, 7 DAA) | also measured |
| --- | --- | --- | --- | --- | --- | --- | --- | --- | --- | --- | --- | --- | --- | --- | --- | --- | --- | --- | --- | --- | --- |
| Cn1c(O)c(C(=O)COc2ccc(Cl)cc2Cl)c2ccccc21 [Compound C1, 2-(2,4-Dichlorophenoxy)-1-(2-hydroxy-1-methyl-1H-indol-3-yl)ethanone] | 68% | 0% | 63% | 0% | 63% | 0% | 48% | 0% | 65% | 0% | 65% | 0% | 63% | 0% | 70% | 0% | 68% | 0% | 60% | 0% | pest or weed control at 280 g/ha ([4]; 336 h, 14 DAA): 85%; pest or weed control at 560 g/ha ([4]; 336 h, 14 DAA): 0%; pest or weed control at 280 g/ha ([4]; 504 h, 21 DAA): 90%; pest or weed control at 560 g/ha ([4]; 504 h, 21 DAA): 0%; TGA Data (rate of weight loss, volatility) [5]: 0.7 µg/min; pest or weed control at 280 g/ha ([6]; 168 h, 7 DAA): 68%; pest or weed control at 560 g/ha ([6]; 168 h, 7 DAA): 0%; pest or weed control at 280 g/ha ([6]; 336 h, 14 DAA): 78%; pest or weed control at 560 g/ha ([6]; 336 h, 14 DAA): 0%; pest or weed control at 280 g/ha ([6]; 504 h, 21 DAA): 77%; pest or weed control at 560 g/ha ([6]; 504 h, 21 DAA): 0%; pest or weed control at 280 g/ha ([7]; 168 h, 7 DAA): 61%; pest or weed control at 560 g/ha ([7]; 168 h, 7 DAA): 0%; pest or weed control at 280 g/ha ([7]; 336 h, 14 DAA): 72%; pest or weed control at 560 g/ha ([7]; 336 h, 14 DAA): 0%; pest or weed control at 280 g/ha ([7]; 504 h, 21 DAA): 72%; pest or weed control at 560 g/ha ([7]; 504 h, 21 DAA): 0% |
| O=C(COc1ccc(Cl)cc1Cl)NOc1ccccc1 [Compound D7] | 68% | 80% | 68% | 85% | 70% | 92% | 63% | 73% | 83% | 89% | 95% | 97% | 73% | 80% | 83% | 90% | 83% | 83% | 63% | 63% | pest or weed control at 280 g/ha ([4]; 336 h, 14 DAA): 83%; pest or weed control at 560 g/ha ([4]; 336 h, 14 DAA): 85%; pest or weed control at 280 g/ha ([4]; 504 h, 21 DAA): 95%; pest or weed control at 560 g/ha ([4]; 504 h, 21 DAA): 95%; TGA Data (rate of weight loss, volatility) [5]: 0.2 µg/min; pest or weed control at 280 g/ha ([6]; 168 h, 7 DAA): 65%; pest or weed control at 560 g/ha ([6]; 168 h, 7 DAA): 68%; pest or weed control at 280 g/ha ([6]; 336 h, 14 DAA): 70%; pest or weed control at 560 g/ha ([6]; 336 h, 14 DAA): 75%; pest or weed control at 280 g/ha ([6]; 504 h, 21 DAA): 70%; pest or weed control at 560 g/ha ([6]; 504 h, 21 DAA): 78%; pest or weed control at 280 g/ha ([7]; 168 h, 7 DAA): 66%; pest or weed control at 560 g/ha ([7]; 168 h, 7 DAA): 73%; pest or weed control at 280 g/ha ([7]; 336 h, 14 DAA): 77%; pest or weed control at 560 g/ha ([7]; 336 h, 14 DAA): 85%; pest or weed control at 280 g/ha ([7]; 504 h, 21 DAA): 82%; pest or weed control at 560 g/ha ([7]; 504 h, 21 DAA): 89% |
